How the values were obtained:
Type in all cases: biochemical, human
pooled normal plasma [1] = assay: Thrombelastographic coagulation kinetics, tissue factor-activated normal plasma; conditions: 100 μM
Procedure: (§1) Pooled normal plasma (George King Bio-Medical, Overland Park, Kans.) anticoagulated with sodium citrate was utilized for experimentation. […] Factor XIII (FXIII) deficient plasma anticoagulated with sodium citrate was also obtained from George King Bio-Medical (Overland Park, Kans.).
(§2) Plasma Sample Composition. The final volume for all subsequently described plasma sample mixtures was 359.4 μL. […] (Motterlini et al., Expert Opin Investig Drugs, 14:1305-1318 (2005), which is incorporated by reference herein in its entirety).
(§3) Clot Lifespan Model Analyses. Plasma sample mixtures were placed in a disposable cup in a computer-controlled THROMBELASTOGRAPH® hemostasis system (Model 5000, Haemoscope Corp., Niles, Ill.), with addition of CaCl2 as the last step to initiate clotting. Data were collected for 15 minutes, as normal plasma completes thrombus formation within this interval in this system (Dong et al., Eur J Pharmacol 590:99-104 (2008)).
(§4) Statistical Analyses. Data are presented as mean±SD. All conditions described were represented with n=8 experiments, as n=6-8 typically provides statistical power>0.8 in similar analyses (Nielsen et al., Acta Anaesthesiol Scand 49:222-231 (2005) and Nielsen et al., Blood Coagul Fibrinolysis 17:75-81 (2006)). Analyses of the effects of CORM-2 and iCORM-2 on thrombelastographic variables were conducted using one way analysis of variance with the Holm-Sidak test used for post hoc comparisons. Graphical representation of the data was generated with commercially available software (Origin 7.5, OriginLab Corp., Northampton, Mass.). A P value of ≦0.05 was considered significant.

[2] = test system: Factor XIII (FXIII) deficient plasma; assay: Thrombelastographic coagulation kinetics, Celite-activated FXIII deficient plasma
Procedure: as §1, §2, §3, §4

pooled normal plasma [3] = assay: CLSM thrombelastography with tPA in undiluted and 30% diluted plasma; conditions: tPA 100 IU/mL, 100 μM CORM-2, median, n=8
From the text: Plasma and volume expanders. Pooled normal plasma (George King Bio-Medical, Overland Park, Kans.) anticoagulated with sodium citrate was utilized for experimentation. […] The volume expanders tested were 0.9% NaCl (Abbott Laboratories, North Chicago, Ill.; also designated as NS) and 6% hydroxylethyl starch (HES) in 0.9% NaCl (VOLUVEN®, average molecular weight 130 kDa, 0.4 degree of substitution, C2:C6 ratio of substitution 11.2; Fresenius Kabi, Bad Homburg, Germany; also referred to as VOL).
Plasma sample composition of experiments with tissue-type plasminogen activator addition. As in the first series of experiments, the final volume of plasma sample mixtures was 359.6 μL. Sample composition consisted of 316 μL of plasma/volume expander, 10 μL of tissue factor reagent (0.1% final concentration), 3.6 μL of DMSO without or with CORM-2 (100 μM final concentration), 10 μL of tissue-type plasminogen activator (tPA, 580 U/μg, Genentech, Inc., San Francisco, Calif.) diluted with 10 mM potassium phosphate buffer (pH 7.4) for a final activity of 100 IU/mL, and 20 μL of 200 mM CaCl2. As with tissue factor reagent, tPA stock was kept on ice prior to use and was remade every two hours. Plasma was diluted 0% or 30% with NS or VOL (n=8 per condition).
Clot Lifespan Model (CLSM) Analyses. Plasma sample mixtures were placed in a disposable cup in a computer-controlled THROMBELASTOGRAPH® hemostasis system (Model 5000, Haemoscope Corp., Niles, Ill.), with addition of CaCl2 as the last step to initiate clotting. In the first series of experiments, no tPA was added, so data were collected until clot strength (maximum amplitude) was stable. In the second series of experiments which in tPA was added, data were collected until clot lysis time occurred. […] Additional elastic modulus-based parameters were determined and the nomenclature used to describe these phenomena is as follows: Time to maximum rate of thrombus generation (TMRTG): This is the time interval (sec) observed prior to maximum speed of clot growth. Maximum rate of thrombus generation (MRTG): This is the maximum velocity of clot growth observed (dynes/cm^2/sec). Total Thrombus Generation (TTG): This is the total area under the velocity curve during clot growth (dynes/cm^2), representing the amount of clot strength generated during clot growth. Time to maximum rate of lysis (TMRL): This is the time interval (sec) measured from the time of maximum strength to the time when the velocity of clot disintegration is maximal. Maximum Rate of Lysis (MRL): This is the maximum velocity of clot disintegration observed (−dynes/cm^2/sec). Area of Clot Lysis (ACL): This is the total area under the velocity curve during clot disintegration (−dynes/cm^2), representing the amount of clot strength lost during clot disintegration. As this model involves complete fibrinolysis, TTG is equivalent to ACL, so ACL was not presented as it provides no additional information.
Statistical Analyses. Data obtained from pooled normal plasma not exposed to tPA were graphically represented with commercially available software (SigmaPlot 11.0, Systat Software, Inc., San Jose, Calif.), and kinetic modeling of thrombelastographic data performed with the same software. Analyses of the effects of hemodilution and CORM-2 on CLSM variables obtained from pooled normal plasma were conducted using Kruskal-Wallis one way analysis of variance with Student-Newman-Keuls post-hoc test. […] These analyses were conducted with the same commercially available software (SigmaPlot 11.0). A P value of <0.05 was considered significant.

[4] = TF-activated normal plasma, mean ± SD, n=8
[5] = 100 μM, Celite-activated FXIII deficient plasma, mean ± SD, n=8

How did the “MRTG (maximum rate of thrombus generation)” value (pooled normal plasma [1]; [4]) turn out when `[C-]#[O+].[C-]#[O+].[C-]#[O+].[C-]#[O+].[C-]#[O+].[C-]#[O+].[Cl][Ru][Cl].[Cl][Ru][Cl]` [CORM-2, tricarbonyldichlororuthenium (II) dimer] was run?
Its value is 9.1 ± 0.9 dynes/cm^2/sec.

And the “TMRTG (time to maximum rate of thrombus generation)” value (from here on “TMRTG”) (pooled normal plasma [1]; [4])?
The value was 156 ± 13 s.

What about the “TTG (total thrombus generation)” value (pooled normal plasma [1]; [4]) of the same molecule?
The value was 273 ± 21 dynes/cm^2.

And the “velocity of clot growth relative to unexposed samples” value (pooled normal plasma [1]; tissue factor activation)?
The value was “more than double”.

And the “MRTG (maximum rate of thrombus generation)” value [2, 5]?
The value was 9.1 ± 1.2 dynes/cm^2/sec.

What about the “TMRTG” value [2, 5] of the same molecule?
Its value is 296 ± 13 s.

What about the “TTG (total thrombus generation)” value [2, 5] of the same molecule?
The value was 163 ± 21 dynes/cm^2.

And the “equivalent replacement of FXIII activity with regard to enhancement of coagulation kinetics” value ([2]; addition to FXIII-deficient plasma)?
Its value is 100%.

And the “CGT (clot growth time)” value (pooled normal plasma [3]; plasma diluted 30% with NS)?
The value was 8.0 min.

And the “CLS (clot lifespan)” value (pooled normal plasma [3]; plasma diluted 30% with NS)?
Its value is 38.7 min.

What about the “CLT (clot lysis time)” value (pooled normal plasma [3]; plasma diluted 30% with NS) of the same molecule?
Its value is 31.5 min.

What about the “MRL (maximum rate of lysis)” value (pooled normal plasma [3]; plasma diluted 30% with NS) of the same molecule?
Its value is −1.9 −dynes/cm^2/sec.

And the “MRTG (maximum rate of thrombus generation)” value (pooled normal plasma [3]; plasma diluted 30% with NS)?
The value was 11.2 dynes/cm^2/sec.

What about the “TMRL (time to maximum rate of lysis)” value (pooled normal plasma [3]; plasma diluted 30% with NS) of the same molecule?
The value was 23.4 min.

What about the “TMRTG” value (pooled normal plasma [3]; plasma diluted 30% with NS) of the same molecule?
Its value is 2.00 min.

What about the “TTG (total thrombus generation)” value (pooled normal plasma [3]; plasma diluted 30% with NS) of the same molecule?
The value was 206 dynes/cm^2.

What about the “CGT (clot growth time)” value (pooled normal plasma [3]; plasma diluted 30% with VOL) of the same molecule?
The value was 2.2 min.

And the “CLS (clot lifespan)” value (pooled normal plasma [3]; plasma diluted 30% with VOL)?
The value was 10.0 min.

What about the “CLT (clot lysis time)” value (pooled normal plasma [3]; plasma diluted 30% with VOL) of the same molecule?
The value was 8.0 min.

What about the “MRL (maximum rate of lysis)” value (pooled normal plasma [3]; plasma diluted 30% with VOL) of the same molecule?
The value was −0.9 −dynes/cm^2/sec.

And the “MRTG (maximum rate of thrombus generation)” value (pooled normal plasma [3]; plasma diluted 30% with VOL)?
The value was 3.8 dynes/cm^2/sec.

And the “TMRL (time to maximum rate of lysis)” value (pooled normal plasma [3]; plasma diluted 30% with VOL)?
Its value is 5.2 min.

And the “TMRTG” value (pooled normal plasma [3]; plasma diluted 30% with VOL)?
Its value is 2.0 min.

What about the “TTG (total thrombus generation)” value (pooled normal plasma [3]; plasma diluted 30% with VOL) of the same molecule?
The value was 62 dynes/cm^2.

And the “CGT (clot growth time)” value (pooled normal plasma [3]; undiluted plasma)?
Its value is 8.1 min.

And the “CLS (clot lifespan)” value (pooled normal plasma [3]; undiluted plasma)?
Its value is 31.6 min.

What about the “CLT (clot lysis time)” value (pooled normal plasma [3]; undiluted plasma) of the same molecule?
Its value is 24.3 min.

And the “MRL (maximum rate of lysis)” value (pooled normal plasma [3]; undiluted plasma)?
Its value is −3.0 −dynes/cm^2/sec.

What about the “MRTG (maximum rate of thrombus generation)” value (pooled normal plasma [3]; undiluted plasma) of the same molecule?
Its value is 13.9 dynes/cm^2/sec.

What about the “TMRL (time to maximum rate of lysis)” value (pooled normal plasma [3]; undiluted plasma) of the same molecule?
Its value is 17.7 min.

And the “TMRTG” value (pooled normal plasma [3]; undiluted plasma)?
The value was 2.1 min.

And the “TTG (total thrombus generation)” value (pooled normal plasma [3]; undiluted plasma)?
Its value is 285 dynes/cm^2.

From US8697747B2, “Enhancing coagulation or reducing fibrinolysis” (THe UAB Research Foundation, priority 2009, dated 2014)
